According to US8415359B2, “Phenylpyrrole derivative” (Daiichi Sankyo Company, Limited, priority 2008, dated 2013):

molecular target: T1, human pancreatic GK (human glucokinase variant 1, GST-fused protein) (Homo sapiens, UniProt P35557); experiment: GK activity test (GK activation rate); assay type: biochemical; conditions: test compound 1 μM; glucose 5 mM; 30 min at room temperature; absorbance at 340 nm with test compound / without test compound
T1 construct: made in house; host or cells: Escherichia coli (such as BL21 or JM109)
T1 sequence (P35557 1-465): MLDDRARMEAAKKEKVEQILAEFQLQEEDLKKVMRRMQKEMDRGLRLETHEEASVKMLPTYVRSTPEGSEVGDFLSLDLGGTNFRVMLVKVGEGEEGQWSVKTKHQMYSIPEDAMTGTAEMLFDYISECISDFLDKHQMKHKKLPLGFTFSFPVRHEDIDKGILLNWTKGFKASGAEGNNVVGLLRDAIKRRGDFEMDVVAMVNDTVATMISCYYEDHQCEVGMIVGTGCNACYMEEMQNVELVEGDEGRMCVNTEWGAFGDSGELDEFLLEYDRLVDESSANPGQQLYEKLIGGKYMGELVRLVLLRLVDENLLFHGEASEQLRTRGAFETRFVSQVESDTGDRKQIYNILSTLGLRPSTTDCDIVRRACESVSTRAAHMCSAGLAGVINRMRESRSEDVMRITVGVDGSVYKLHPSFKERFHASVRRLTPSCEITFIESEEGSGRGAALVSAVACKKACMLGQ
Method: cDNA encoding human pancreatic GK polypeptide (GenBank Accession No. NM_000162, human glucokinase variant 1) was cloned from a human cDNA library by polymerase chain reaction (PCR), and introduced into a glutathione S-transferase (GST)-fused protein expression vector (GEX4T, GE Healthcare Bioscience). The vector was introduced into Escherichia coli (such as BL21 or JM109, Invitrogen), and the transformed E. coli was cultured overnight at 37° C. followed by recovery of the cells. After freezing and thawing the recovered cells, the cells were suspended in phosphate buffer containing Triton-X at a final concentration of 1% followed by disrupting the cells with an ultrasonic homogenizer. The supernatant obtained by low-speed centrifugation treatment of the homogenate (10,000×g, 30 minutes) was further subjected to high-speed centrifugation (100,000×g, 10 minutes) followed by recovering the supernatant and purifying the fused protein using a GST fused protein purification system (Bulk GST Purification Module, GE Healthcare Bioscience). The GK fused protein was divided into smaller aliquots and stored at −80° C.
GK activity was measured using the GK purified in (1) above. More specifically, an enzyme solution was prepared by adding the purified GK of (1) above and glucose-6-phosphate dehydrogenase (Sigma) to solution 1 of a glucose assay kit (D-Glucose UV Method, Roche Diagnostics). The enzyme solution, a test compound diluent and glucose (final concentration: 5 mM) were mixed in a 96-well ELISA plate, and allowed to react for 30 minutes at room temperature. Following completion of the reaction, absorbance at a wavelength of 340 nm was measured using SpectraMax Plus (Molecular Probe). Furthermore, unreacted (when glucose was not added) absorbance was used for the background.
GK activation rates were indicated with values represented by the following numerical formula: (absorbance after reacting for 30 minutes when test compound added)/(absorbance after reacting for 30 minutes when test compound not added).

| GK Activation Rate | SMILES |
| --- | --- |
| 2.4 | C[C@@H]1OC(c2ccc(-c3cc(Oc4ccc(S(C)(=O)=O)nc4)cc(O[C@@H](C)CO)c3)[nH]2)=N[C@@H]1C [Example 88, (2S)-2-(3-{5-[(4R,5S)-4,5-Dimethyl-4,5-dihydro-1,3-oxazol-2-yl]-1H-pyrrol-2-yl}-5-{[6-(methylsulfonyl)pyridin-3-yl]oxy}phenoxy)propan-1-ol] |
| 2.7 | COC[C@H](C)Oc1cc(Oc2ccc(S(C)(=O)=O)nc2)cc(-c2ccc(C3=NC[C@H](CO)O3)[nH]2)c1 [Example 82, {(5R)-2-[5-(3-[(1S)-2-Methoxy-1-methylethoxy]-5-{[6-(methylsulfonyl)pyridin-3-yl]oxy}phenyl)-1H-pyrrol-2-yl]-4,5-dihydro-1,3-oxazol-5-yl}methanol] |
| 2.2 | COC[C@H](C)Oc1cc(Oc2cnc(S(C)(=O)=O)cn2)cc(-c2ccc(C3=N[C@H]([C@@H](C)O)CO3)[nH]2)c1 [Example 114, (1R)-1-{(4S)-2-{[5-(3-[(2S)-1-Methoxypropan-2-yl]oxy}-5-{[5-(methylsulfonyl)pyrazin-2-yl]oxy}phenyl)-1H-pyrrol-2-yl]-4,5-dihydro-1,3-oxazol-4-yl}ethanol] |
| 1.9 | COC[C@H](C)Oc1cc(Oc2cnc(C(=O)N3CCN(C)CC3)cn2)cc(-c2ccc(-c3nccs3)[nH]2)c1 [Example 64, 2-{3-[(1S)-2-Methoxy-1-methylethoxy]-5-[5-(1,3-thiazol-2-yl)-1H-pyrrol-2-yl]phenoxy}-5-[(4-methylpiperazin-1-yl)carbonyl]pyrazine] |
| 2.0 | CC[C@@H]1COC(c2ccc(-c3cc(Oc4cnc(S(C)(=O)=O)cn4)cc(O[C@@H](C)CO)c3)[nH]2)=N1 [Example 108, (2S)-2-(3-{5-[(4R)-4-Ethyl-4,5-dihydro-1,3-oxazol-2-yl]-1H-pyrrol-2-yl}-5-{[5-(methylsulfonyl)pyrazin-2-yl]oxy}phenoxy)propan-1-ol] |
| 1.9 | COC[C@H](C)Oc1cc(Oc2ccc(S(C)(=O)=O)cc2)cc(-c2ccc(-c3ncc(C)s3)[nH]2)c1 [Example 3, 2-(5-{3-[(1S)-2-Methoxy-1-methylethoxy]-5-[4-(methylsulfonyl)phenoxy]phenyl}-1H-pyrrol-2-yl)-5-methyl-1,3-thiazole] |
| 1.9 | Cc1nnc(-c2ccc(-c3cc(Oc4cnc(S(C)(=O)=O)cn4)cc(O[C@@H](C)CO)c3)[nH]2)o1 [Example 98, (2S)-2-(3-[5-(5-Methyl-1,3,4-oxadiazol-2-yl)-1H-pyrrol-2-yl]-5-{[5-(methylsulfonyl)pyrazin-2-yl]oxy}phenoxy)propan-1-ol] |
| 2.5 | COC[C@H](C)Oc1cc(Oc2ccc(S(C)(=O)=O)nc2)cc(-c2ccc(C3=N[C@H](CO)CO3)[nH]2)c1 [Example 86, {(4R)-2-[5-(3-[(1S)-2-Methoxy-1-methylethoxy]-5-{[6-(methylsulfonyl)pyridin-3-yl]oxy}phenyl)-1H-pyrrol-2-yl]-4,5-dihydro-1,3-oxazol-4-yl}methanol] |
| 2.2 | C[C@@H]1OC(c2ccc(-c3cc(Oc4cnc(S(C)(=O)=O)cn4)cc(O[C@@H](C)CO)c3)[nH]2)=N[C@@H]1C [Example 109, (2S)-2-(3-{5-[(4R,5S)-4,5-Dimethyl-4,5-dihydro-1,3-oxazol-2-yl]-1H-pyrrol-2-yl}-5-{[5-(methylsulfonyl)pyrazin-2-yl]oxy}phenoxy)propan-1-ol] |
| 1.8 | C[C@H]1CN=C(c2ccc(-c3cc(Oc4ncc(C(=O)N5CCC5)cc4Cl)cc(O[C@@H](C)CO)c3)[nH]2)O1 [Example 75, (2S)-2-(3-{[5-(Azetidin-1-ylcarbonyl)-3-chloropyridin-2-yl]oxy}-5-{5-[(5S)-5-methyl-4,5-dihydro-1,3-oxazol-2-yl]-1H-pyrrol-2-yl}phenoxy)propan-1-ol] |
| 2.0 | COC[C@H](C)Oc1cc(Oc2ncc(C(=O)N3CCC3)cc2Cl)cc(-c2ccc(C3=NCCO3)[nH]2)c1 [Example 73, 5-(Azetidin-1-ylcarbonyl)-3-chloro-2-{3-[5-(4,5-dihydro-1,3-oxazol-2-yl)-1,4-pyrrol-2-yl]-5-[(1S)-2-methoxy-1-methylethoxy]phenoxyl}pyridine] |
| 2.5 | COC[C@H](C)Oc1cc(Oc2ccc(S(C)(=O)=O)nc2)cc(-c2ccc(C3=N[C@H]([C@@H](C)O)CO3)[nH]2)c1 [Example 95, (1R)-1-{(4S)-2-[5-(3-[(1S)-2-Methoxy-1-methylethoxy]-5-{[6-(methylsulfonyl)pyridin-3-yl]oxy}phenyl)-1H-pyrrol-2-yl]-4,5-dihydro-1,3-oxazol-4-yl}ethanol] |
| 1.6 | COC[C@H](C)Oc1cc(Oc2ccc(S(C)(=O)=O)cc2)cc(-c2ccc(C(C)=O)[nH]2)c1 [Example 15, 1-(5-{3-[(1S)-2-Methoxy-1-methylethoxy]-5-[4-(methylsulfonyl)phenoxy]phenyl}-1H-pyrrol-2-yl)ethanone] |
| 2.6 | CNC(=O)c1ccc(Oc2cc(O[C@@H](C)CO)cc(-c3ccc(C4=NC[C@H](C)O4)[nH]3)c2)cn1 [Example 123, 5-(3-[(1S)-2-Hydroxy-1-methylethoxy]-5-{5-[(5S)-5-methyl-4,5-dihydro-1,3-oxazol-2-yl]-1H-pyrrol-2-yl}phenoxy)-N-methylpyridine-2-carboxamide] |
| 2.6 | C[C@H]1CN=C(c2ccc(-c3cc(Oc4ccc(S(C)(=O)=O)nc4)cc(O[C@@H](C)CO)c3)[nH]2)O1 [Example 77, (2S)-2-(3-{5-[(5S)-5-Methyl-4,5-dihydro-1,3-oxazol-2-yl]-1H-pyrrol-2-yl}-5-{[6-(methylsulfonyl)pyridin-3-yl]oxy}phenoxy)propan-1-ol] |
| 2.0 | C[C@@H](CO)Oc1cc(Oc2ccc(S(C)(=O)=O)cc2)cc(-c2ccc(C3=NCCO3)[nH]2)c1 [Example 21, (2S)-2-{3-[5-(4,5-Dihydro-1,3-oxazol-2-yl)-1H-pyrrol-2-yl]-5-[4-(methylsulfonyl)phenoxy]phenoxy}propan-1-ol] |
| 2.1 | COC[C@H](C)Oc1cc(Oc2ccc(C(=O)N3CCC3)cc2F)cc(-c2ccc(-c3nccs3)[nH]2)c1 [Example 41, 2-(5-{3-[4-(Azetidin-1-ylcarbonyl)-2-fluorophenoxy]-5-[(1S)-2-methoxy-1-methylethoxy]phenyl}-1H-pyrrol-2-yl)-1,3-thiazole] |
| 2.4 | COC[C@H](C)Oc1cc(Oc2ccc(S(C)(=O)=O)nc2)cc(-c2ccc(C3=N[C@H]([C@H](C)O)CO3)[nH]2)c1 [Example 93, (1S)-1-{(4S)-2-[5-(3-[(1S)-2-Methoxy-1-methylethoxy]-5-{[6-(methylsulfonyl)pyridin-3-yl]oxy}phenyl)-1H-pyrrol-2-yl]-4,5-dihydro-1,3-oxazol-4-yl}ethanol] |
| 2.3 | C[C@@H](CO)Oc1cc(Oc2ccc(S(C)(=O)=O)cc2)cc(-c2ccc(C3=NCCS3)[nH]2)c1 [Example 26, (2S)-2-{3-[5-(4,5-Dihydro-1,3-thiazol-2-yl)-1H-pyrrol-2-yl]-5-[4-(methylsulfonyl)phenoxy]phenoxy}propan-1-ol] |
| 2.1 | COC[C@H](C)Oc1cc(Oc2cnc(S(C)(=O)=O)cn2)cc(-c2ccc(C3=NC(O)[C@H](C)O3)[nH]2)c1 (stereo partly drawn) [Example 103, (5S)-2-[5-(3-[(1S)-2-Methoxy-1-methylethoxy]-5-{[5-(methylsulfonyl)pyrazin-2-yl]oxy}phenyl)-1H-pyrrol-2-yl]-5-methyl-4,5-dihydro-1,3-oxazol-4-ol] |
| 2.5 | CNS(=O)(=O)c1ccc(Oc2cc(O[C@@H](C)CO)cc(-c3ccc(C4=NC[C@H](C)O4)[nH]3)c2)cn1 [Example 122, 5-(3-[(1S)-2-Hydroxy-1-methylethoxy]-5-{5-[(5S)-5-methyl-4,5-dihydro-1,3-oxazol-2-yl]-1H-pyrrol-2-yl}phenoxy)-N-methylpyridine-2-sulfonamide] |
| 2.6 | COC[C@H](C)Oc1cc(Oc2ccc(S(C)(=O)=O)nc2)cc(-c2ccc(C3=N[C@H](CO)[C@H](C)O3)[nH]2)c1 [Example 91, {(4R,5S)-2-[5-(3-[(1S)-2-Methoxy-1-methylethoxy]-5-{[6-(methylsulfonyl)pyridin-3-yl]oxy}phenyl)-1H-pyrrol-2-yl]-5-methyl-4,5-dihydro-1,3-oxazol-4-yl}methanol] |
